Experimental data taken from paper PMC9685055, “Biological activity of new bioactive steroids deriving from biotransformation of cortisone” (Microbial Cell Factories, 2022).

Columns and labels:
[1] = Photochemiluminescence (PCL-ACL) antioxidant assay; conditions: 0.1 mg/mL; Trolox equivalents per g of sample
Protocol: Photochemiluminescence assay, based on the methodology of Popov and Lewin [35], was performed to measure the antioxidant activity of cortisone, SCA and SCB compounds against superoxide anion radicals generated from luminol, a photosensitizer, when exposed to UV light at λmax = 351 nm. The antioxidant activity of compounds was measured using ACL kits (Analytic Jena, Jena, Germany) with a Photochem apparatus (Analytic Jena, Jena, Germany). In the PCL-ACL assay, the photochemical generation of free radicals is combined with the sensitive detection using chemiluminescence. In ACL studies, the kinetic light emission curve was monitored for 3 min and expressed as mM Trolox equivalents. The areas under the curves were calculated using the PCL soft control and analysis software. […] The observed inhibition of the signal was plotted against the concentration of Trolox added to the assay medium. The concentration of the added sample was such that the generated luminescence during the 3 min sampling interval fell within the limits of the standard curve. For ACL assay, 2.3 mL of reagent 1 (solvent and dilution reagent, methanol), 0.2 mL of reagent 2 (buffer solution), 25 μL of reagent 3 (photosensitizer: luminol 1 mmol L^−1), and 10 μL of standard or sample solution were mixed and measured. Luminol is used as a photosensitizer and as a detecting substance for free radicals. Trolox were used for the standard calibration curve from […].

[2] = test system: p65 NF-κB nuclear translocation in HaCaT cells; assay: TNFα-induced p65 NF-κB nuclear translocation, immunofluorescence; format: cell-based; conditions: positive control (betamethasone-17-valerate 10 µg/mL), then 10 ng/mL TNFα 1 h
Protocol: HaCaT cells were cultured with Dulbecco’s modified Eagle’s medium High Glucose (Lonza, Milan, Italy) supplemented with 10% FBS, 100 U/mL penicillin, 100 μg/mL streptomycin and 2 mM L-glutamine as previously described. Cells were maintained in a humidified incubator at 37 °C with 5% CO2 and incubated until the monolayer was 80% confluent. Medium was changed every 2 days.
HaCaT cells were pretreated with or without 10 μM of both SCA and SCB for 24 h. Stock solutions of the two compounds were prepared in DMSO immediately before use and diluted to the final concentration in the culture medium. In some sets of experiments, betamethasone-17-valerate (10 µg/mL) served as a positive control; dimethyl sulfoxide (DMSO) served as a solvent control. After the pretreatments, cells were stimulated with 10 ng/mL TNFα for 1 h to induce the NFκB signaling pathway. Then, media were replaced with fresh culture medium. Cells and supernatants were collected at different time points for each set of experiments as described below.
Briefly, HaCaT cells were seeded on coverslips at a density of 1 × 10^5 cell/mL and incubated with DMEM high glucose supplemented with FBS 10%. Then, HaCaT cells were treated as indicated above. At the end of the proinflammatory stimulus with TNFα, cells were fixed in 4% paraformaldehyde in PBS for 30 min at 4 °C as previously described. HaCaT cells were permeabilized for 5 min at RT with PBS containing 0.2% Triton X-100. After the blocking with 1% BSA in PBS at RT for 1 h, HaCaT cells were incubated with p65 NF-κB primary antibody (1:100, sc-372; Santa Cruz Biotechnology, Inc., Dallas, Texas, USA) in PBS containing 0.5% BSA at 4 °C overnight. After washing, coverslips were incubated with appropriate secondary antibody for 1 h at RT. Nuclei were stained with 1 μg/mL DAPI (Sigma- Aldrich, Italy) for 1 min. […] Fluorescence was examined using an Epifluorescence microscope (Nikon Eclipse E800; Nikon Corporation, Surrey, UK) equipped with a plan apochromat 100 × 0.5 − 1.3 oil immersion objective and a mercury lamp source.

cyclooxygenase (COX) = target: T1, cyclooxygenase (COX) (Ovis aries, UniProt P05979); assay: Cyclooxygenase inhibitory assay (fluorescence COX activity kit); format: biochemical; conditions: purified COX preparation, 50 µM, positive control
T1 construct: purchased Cayman 700200
T1 sequence (P05979 25-600): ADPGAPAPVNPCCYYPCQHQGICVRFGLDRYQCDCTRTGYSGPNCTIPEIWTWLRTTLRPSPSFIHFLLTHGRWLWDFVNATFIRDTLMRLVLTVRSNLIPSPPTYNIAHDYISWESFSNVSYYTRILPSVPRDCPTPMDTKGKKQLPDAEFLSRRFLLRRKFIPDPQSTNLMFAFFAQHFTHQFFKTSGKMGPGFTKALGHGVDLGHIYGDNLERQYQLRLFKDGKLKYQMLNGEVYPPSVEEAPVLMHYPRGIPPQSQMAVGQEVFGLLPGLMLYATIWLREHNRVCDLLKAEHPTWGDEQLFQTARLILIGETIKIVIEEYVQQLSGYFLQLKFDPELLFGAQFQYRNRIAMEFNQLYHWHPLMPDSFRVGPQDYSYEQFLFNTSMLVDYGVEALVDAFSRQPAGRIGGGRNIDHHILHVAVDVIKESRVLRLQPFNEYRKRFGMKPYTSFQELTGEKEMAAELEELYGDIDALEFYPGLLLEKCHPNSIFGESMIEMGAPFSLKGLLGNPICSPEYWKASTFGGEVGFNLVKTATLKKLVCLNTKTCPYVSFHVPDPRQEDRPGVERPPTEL
Protocol: Cyclooxygenase (COX) activity assay was determined by using a fluorescence COX activity assay kit (Cayman, No. 700200) for detecting COX-1 and COX-2 activity in purified enzyme and tissue homogenate preparations. The assay was conducted by monitoring the appearance of fluorescent compound resofurin in accordance to the supplier recommendation. Aspirin (acetylsalicylic acid; 50 µM) served as positive control. The test compounds were dissolved in 1–2% DMSO (v/v) at 4 different concentrations (0.1, 1, 10 and 100 µM) and added to a purified COX preparation. A 1–2% DMSO solution was added to control plates. The plates were shaken for a few seconds and incubated for 5 min at 25 °C. The fluorescence was measured by using an excitation wavelength of 540 nm and an emission wavelength of 590 nm. Average fluorescent values were calculated for all the samples (n = 3/group) in order to determine the percentage of inhibition in respect to control (i.e. untreated) plates.

For `C[C@]12CCC(=O)C=C1CC[C@@H]1[C@@H]2C(=O)C[C@@]2(C)[C@H]1CC[C@]2(O)C(=O)CO` [cortisone], the “antioxidant capacity, PCL-ACL assay” value [1] was 0.13 µmol/g.
In the case of `C[C@H]1C[C@H]2[C@@H]3CCC4=CC(=O)C=C[C@]4(C)[C@@]3(F)[C@@H](O)C[C@]2(C)[C@@]1(O)C(=O)CO` [betamethasone, reference compound], the “effect on TNFα-mediated p65 activation” value [2] is reported as “only partly prevented”.
In the case of `CC(=O)Oc1ccccc1C(=O)O` [aspirin, acetylsalicylic acid, reference compound], the “effect on COX activity” value (cyclooxygenase (COX)) is reported as “strongly inhibited”.
